In patent US20100041089A1, “IMPROVED METHOD FOR DETECTING CHEMICAL […]” (priority 2006, published 2010):

Test system: yeast genes (expressed mRNA)
Test: DNA chip measurement of expressed mRNA of yeast genes after culture with a toxic chemical substance
Assay type: cell-based, Saccharomyces cerevisiae S288C
Conditions: for level of expressed mRNA in the presence of chemical substance / level in the absence of chemical substance: cultured two hours with the chemical substance; for The level of expressed mRNA in the presence of chemical substance/The level of expressed mRNA in the absence of chemical substance: cultured two hours with substance
How it was run: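 Expression is given as treated/untreated fluorescence ratio on a whole-genome yeast DNA chip, a ratio of two or more being significant. Log-phase S288C cultures in YPD at 25 °C received the chemical for 2 h at a dose that slows growth without killing. mRNA was reverse-transcribed with Cy3- or Cy5-dUTP.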

[Cl][Cd][Cl] [(2), CdCl2]
level of expressed mRNA in the presence of chemical substance / level in the absence of chemical substance (yeast gene YDR128W): 3.9 | level of expressed mRNA in the presence of chemical substance / level in the absence of chemical substance (yeast gene YDR133C): 1.1 | level of expressed mRNA in the presence of chemical substance / level in the absence of chemical substance (yeast gene YDR250C): 1.4 | level of expressed mRNA in the presence of chemical substance / level in the absence of chemical substance (yeast gene YDR278C): 3.2 | level of expressed mRNA in the presence of chemical substance / level in the absence of chemical substance (yeast gene YDR281C): 2.6 | The level of expressed mRNA in the presence of chemical substance/The level of expressed mRNA in the absence of chemical substance (yeast gene YDR330W): 1.5 | level of expressed mRNA in the presence of chemical substance / level in the absence of chemical substance (yeast gene YDR366C): 2.0 | The level of expressed mRNA in the presence of chemical substance/The level of expressed mRNA in the absence of chemical substance (yeast gene YDR411C): 2.8 | The level of expressed mRNA in the presence of chemical substance/The level of expressed mRNA in the absence of chemical substance (yeast gene YDR511W): 1.7 | The level of expressed mRNA in the presence of chemical substance/The level of expressed mRNA in the absence of chemical substance (yeast gene YDR545W): 1.2 | The level of expressed mRNA in the presence of chemical substance/The level of expressed mRNA in the absence of chemical substance (yeast gene YEL001C): 1.0 | The level of expressed mRNA in the presence of chemical substance/The level of expressed mRNA in the absence of chemical substance (yeast gene YER004W): 1.5 | The level of expressed mRNA in the presence of chemical substance/The level of expressed mRNA in the absence of chemical substance (yeast gene YER035W): 1.6 | The level of expressed mRNA in the presence of chemical substance/The level of expressed mRNA in the absence of chemical substance (yeast gene YER079W): 1.6 | The level of expressed mRNA in the presence of chemical substance/The level of expressed mRNA in the absence of chemical substance (yeast gene YER106W): 0.7 | The level of expressed mRNA in the presence of chemical substance/The level of expressed mRNA in the absence of chemical substance (yeast gene YER158C): 0.9 | The level of expressed mRNA in the presence of chemical substance/The level of expressed mRNA in the absence of chemical substance (yeast gene YER163C): 2.4 | The level of expressed mRNA in the presence of chemical substance/The level of expressed mRNA in the absence of chemical substance (yeast gene YER175C): 1.2 | The level of expressed mRNA in the presence of chemical substance/The level of expressed mRNA in the absence of chemical substance (yeast gene YFL006W): 2.8 | The level of expressed mRNA in the presence of chemical substance/The level of expressed mRNA in the absence of chemical substance (yeast gene YFL010C): 4.8 | The level of expressed mRNA in the presence of chemical substance/The level of expressed mRNA in the absence of chemical substance (yeast gene YFL024C): 1.1 | The level of expressed mRNA in the presence of chemical substance/The level of expressed mRNA in the absence of chemical substance (yeast gene YFL032W): 1.5 | level of expressed mRNA in the presence of chemical substance / level in the absence of chemical substance (yeast gene YFR026C): 2.0 | The level of expressed mRNA in the presence of chemical substance/The level of expressed mRNA in the absence of chemical substance (yeast gene YGL037C): 2.7 | The level of expressed mRNA in the presence of chemical substance/The level of expressed mRNA in the absence of chemical substance (yeast gene YGL047W): 1.9 | The level of expressed mRNA in the presence of chemical substance/The level of expressed mRNA in the absence of chemical substance (yeast gene YGL053W): 1.5 | level of expressed mRNA in the presence of chemical substance / level in the absence of chemical substance (yeast gene YGL088W): 2.1 | The level of expressed mRNA in the presence of chemical substance/The level of expressed mRNA in the absence of chemical substance (yeast gene YGL121C): 5.0 | The level of expressed mRNA in the presence of chemical substance/The level of expressed mRNA in the absence of chemical substance (yeast gene YGL199C): 1.7 | level of expressed mRNA in the presence of chemical substance / level in the absence of chemical substance (yeast gene YGR038W): 1.2 | The level of expressed mRNA in the presence of chemical substance/The level of expressed mRNA in the absence of chemical substance (yeast gene YGR101W): 1.3 | The level of expressed mRNA in the presence of chemical substance/The level of expressed mRNA in the absence of chemical substance (yeast gene YGR110W): 3.1 | The level of expressed mRNA in the presence of chemical substance/The level of expressed mRNA in the absence of chemical substance (yeast gene YGR130C): 0.7 | level of expressed mRNA in the presence of chemical substance / level in the absence of chemical substance (yeast gene YGR139W): 3.7 | The level of expressed mRNA in the presence of chemical substance/The level of expressed mRNA in the absence of chemical substance (yeast gene YGR154C): 2.9 | The level of expressed mRNA in the presence of chemical substance/The level of expressed mRNA in the absence of chemical substance (yeast gene YGR221C): 2.2 | level of expressed mRNA in the presence of chemical substance / level in the absence of chemical substance (yeast gene YGR243W): 2.2 | level of expressed mRNA in the presence of chemical substance / level in the absence of chemical substance (yeast gene YGR293C): 1.9 | level of expressed mRNA in the presence of chemical substance / level in the absence of chemical substance (yeast gene YHL006C): 1.4 | level of expressed mRNA in the presence of chemical substance / level in the absence of chemical substance (yeast gene YHR095W): 2.6 | level of expressed mRNA in the presence of chemical substance / level in the absence of chemical substance (yeast gene YHR105W): 0.8 | The level of expressed mRNA in the presence of chemical substance/The level of expressed mRNA in the absence of chemical substance (yeast gene YHR138C): 1.8 | level of expressed mRNA in the presence of chemical substance / level in the absence of chemical substance (yeast gene YHR181W): 0.7 | The level of expressed mRNA in the presence of chemical substance/The level of expressed mRNA in the absence of chemical substance (yeast gene YHR199C): 2.0 | The level of expressed mRNA in the presence of chemical substance/The level of expressed mRNA in the absence of chemical substance (yeast gene YIL023C): 1.2 | The level of expressed mRNA in the presence of chemical substance/The level of expressed mRNA in the absence of chemical substance (yeast gene YIL041W): 1.2 | The level of expressed mRNA in the presence of chemical substance/The level of expressed mRNA in the absence of chemical substance (yeast gene YIL087C): 1.9 | level of expressed mRNA in the presence of chemical substance / level in the absence of chemical substance (yeast gene YIL127C): 4.8 | level of expressed mRNA in the presence of chemical substance / level in the absence of chemical substance (yeast gene YJL017W): 1.7 | level of expressed mRNA in the presence of chemical substance / level in the absence of chemical substance (yeast gene YJL037W): 1.4 | The level of expressed mRNA in the presence of chemical substance/The level of expressed mRNA in the absence of chemical substance (yeast gene YJL057C): 1.2 | The level of expressed mRNA in the presence of chemical substance/The level of expressed mRNA in the absence of chemical substance (yeast gene YJL066C): 1.2 | The level of expressed mRNA in the presence of chemical substance/The level of expressed mRNA in the absence of chemical substance (yeast gene YJL082W): 0.8
